Source: patent US20250221988A1 (Cullgen (Shanghai), Inc., priority 2022, published 2025)

How the values were obtained:
[1] = tested on: MOLM-13 cells; test: Cell viability assay (CellTiter-Glo) in MOLM-13 cells; format: cell-based; conditions: Homo sapiens, 72 h; MOLM-13 cells, compound alone, three days; read-out: MOLM-13 IC50
[2] = tested on: HEL cells; test: Cell viability assay in HEL cells; format: cell-based; conditions: Homo sapiens
Method: (§1) Cell Culture: RS4;11, MV4;11, MOLM-13 and other cells were cultured at 37° C. with 5% CO2 in RPMI 1640 or DMEM Medium supplemented with 10% fetal bovine serum. Cells were authenticated using the short tandem repeat (STR) assays. Mycoplasma test results were negative.
(§2) Cell viability assays: Cells were seeded at a density of 5000 cells per well in 96-well assay plates and treated with test compounds following a 8-point or 12-point 3-fold serial dilution. Three days later, cell viability was determined using the CellTiter-Glo assay kit according to the manufacturer's instructions. The dose-response curves were determined and IC50 values were calculated using the GraphPad Prism software following a nonlinear regression (least squares fit) method.
(§3) The compounds were tested in HEL, 22RV1, NCI-H82 or NCI-H1155 cells.

[3] = tested on: 22RV1 cells; test: Cell viability assay in 22RV1 cells; format: cell-based; conditions: Homo sapiens
Method: as §1, §2, §3

[4] = tested on: NCI-H82 cells; test: Cell viability assay in NCI-H82 cells; format: cell-based; conditions: Homo sapiens
Method: as §1, §2, §3

[5] = tested on: tested cell lines; conditions: Matyskiela, Lu et al. 2016; cited from earlier work
[6] = target: GSPT1 (Homo sapiens, UniProt P15170+Q96SW2); design: MOLM-13 cells were treated at indicated concentrations with compounds GS-729, GS-731, GS-697, and GS-788 for 16 hours prior to immunoblotting; endogenous in cells; host or cells: MOLM-13; conditions: Matyskiela, Lu et al. 2016; cited from earlier work
Chain of GSPT1 (P15170 whole entry): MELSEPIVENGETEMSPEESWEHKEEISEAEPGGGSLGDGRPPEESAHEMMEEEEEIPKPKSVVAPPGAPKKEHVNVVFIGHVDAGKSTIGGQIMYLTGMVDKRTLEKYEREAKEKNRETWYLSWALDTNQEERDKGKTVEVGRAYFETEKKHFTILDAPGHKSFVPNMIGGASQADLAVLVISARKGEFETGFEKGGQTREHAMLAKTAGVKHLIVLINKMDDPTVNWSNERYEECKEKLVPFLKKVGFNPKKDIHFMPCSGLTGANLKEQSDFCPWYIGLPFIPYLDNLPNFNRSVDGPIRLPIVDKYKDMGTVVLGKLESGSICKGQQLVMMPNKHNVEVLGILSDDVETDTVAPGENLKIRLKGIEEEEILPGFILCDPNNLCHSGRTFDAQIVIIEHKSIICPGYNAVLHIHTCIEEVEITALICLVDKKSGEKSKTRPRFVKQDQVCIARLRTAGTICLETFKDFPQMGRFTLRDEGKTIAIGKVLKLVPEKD
Chain of GSPT1 (Q96SW2 whole entry): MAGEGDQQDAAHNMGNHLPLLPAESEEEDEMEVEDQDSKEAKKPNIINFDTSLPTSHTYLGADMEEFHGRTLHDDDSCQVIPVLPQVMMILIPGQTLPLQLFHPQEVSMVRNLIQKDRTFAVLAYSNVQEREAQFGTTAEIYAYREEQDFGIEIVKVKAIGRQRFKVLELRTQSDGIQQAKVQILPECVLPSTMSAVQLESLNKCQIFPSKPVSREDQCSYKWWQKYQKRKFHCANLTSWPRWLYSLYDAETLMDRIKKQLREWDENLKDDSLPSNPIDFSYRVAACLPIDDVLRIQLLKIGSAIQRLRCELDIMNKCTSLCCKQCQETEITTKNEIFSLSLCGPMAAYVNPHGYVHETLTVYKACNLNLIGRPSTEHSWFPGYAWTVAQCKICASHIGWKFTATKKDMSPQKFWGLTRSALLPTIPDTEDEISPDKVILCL
Chain of GSPT1 (Q16531 whole entry partner): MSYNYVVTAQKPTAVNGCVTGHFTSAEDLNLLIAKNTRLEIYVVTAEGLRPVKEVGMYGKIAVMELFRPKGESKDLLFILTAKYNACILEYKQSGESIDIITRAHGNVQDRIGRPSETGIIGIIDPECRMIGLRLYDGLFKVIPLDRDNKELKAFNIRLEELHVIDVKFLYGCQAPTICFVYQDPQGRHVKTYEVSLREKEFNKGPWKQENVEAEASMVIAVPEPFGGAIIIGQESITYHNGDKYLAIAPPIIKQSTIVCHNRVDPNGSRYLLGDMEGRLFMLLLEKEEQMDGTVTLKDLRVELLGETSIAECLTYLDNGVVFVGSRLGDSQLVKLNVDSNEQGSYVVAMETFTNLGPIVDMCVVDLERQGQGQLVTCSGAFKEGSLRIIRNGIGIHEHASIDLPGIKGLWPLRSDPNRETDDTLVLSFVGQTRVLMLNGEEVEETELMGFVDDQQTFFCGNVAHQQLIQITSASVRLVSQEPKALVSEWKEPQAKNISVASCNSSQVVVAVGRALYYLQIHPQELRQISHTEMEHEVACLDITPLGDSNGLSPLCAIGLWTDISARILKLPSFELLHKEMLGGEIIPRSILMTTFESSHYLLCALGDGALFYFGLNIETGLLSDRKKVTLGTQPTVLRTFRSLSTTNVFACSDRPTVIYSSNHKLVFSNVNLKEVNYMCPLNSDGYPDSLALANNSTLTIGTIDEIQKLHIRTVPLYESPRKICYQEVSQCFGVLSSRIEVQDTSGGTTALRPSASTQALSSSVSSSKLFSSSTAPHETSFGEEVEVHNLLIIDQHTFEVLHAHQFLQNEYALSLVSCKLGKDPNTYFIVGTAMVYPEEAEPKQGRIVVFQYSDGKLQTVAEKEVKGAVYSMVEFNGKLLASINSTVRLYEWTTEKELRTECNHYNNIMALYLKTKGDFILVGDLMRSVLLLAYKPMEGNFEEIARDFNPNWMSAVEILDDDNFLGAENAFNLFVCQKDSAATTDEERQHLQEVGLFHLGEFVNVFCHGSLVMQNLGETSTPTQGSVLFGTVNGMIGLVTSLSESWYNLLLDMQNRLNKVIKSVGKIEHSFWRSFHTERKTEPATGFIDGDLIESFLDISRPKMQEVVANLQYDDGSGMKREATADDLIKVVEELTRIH

Structure (SMILES) | IC50 [1] [nM] | IC50 [2] [nM] | IC50 [3] [nM] | IC50 [4] [nM] | toxicity in tested cell lines [5] | cereblon-dependent degradation of GSPT1 [6]
Cc1nc(-c2cn([C@H]3C[C@H](CNc4ccc5c(c4)CN([C@H]4CCC(=O)NC4=O)C5=O)C3)nc2C2CC2)ccc1F [GS-800, (S)-3-(5-(((trans-3-(3-cyclopropyl-4-(5-fluoro-6-methylpyridin-2-yl)-1H-pyrazol-1-yl)cyclobutyl)methyl)amino)-1-oxoisoindolin-2-yl)piperidine-2,6-dione] | < 10 | 10 to 100 | < 10 | < 10 |  | 
Cc1ccc(F)c(-c2cn([C@H]3C[C@H](CNc4ccc5c(c4)CN(C4CCC(=O)NC4=O)C5=O)C3)nc2C2CC2)n1 (stereo partly drawn) [GS-807, 3-(5-(((Trans-3-(3-cyclopropyl-4-(3-fluoro-6-methylpyridin-2-yl)-1H-pyrazol-1-yl)cyclobutyl)methyl)amino)-1-oxoisoindolin-2-yl)piperidine-2,6-dione] |  | < 10 | < 10 | < 10 |  | 
Cc1ccc(NC(=O)NCc2ccc3c(c2)CN(C2CCC(=O)NC2=O)C3=O)cc1Cl (stereo not drawn) [CC-885] |  |  |  |  | induced significant toxicity in the vast majority of tested cell lines | led to cereblon-dependent degradation of GSPT1
